Results on 32 compounds are retold here after patent US20230348426A1, “OXOPYRROLIDINE FPR2 AGONISTS” (Bristol-Myers Squibb Company, priority 2020, published 2023).

The structures appear in SMILES notation.

Assay [1] has as its target human FPR1 (Homo sapiens (Human), UniProt P21462). In words: FPR1 cyclic adenosine monophosphate (cAMP) assay. It is filed as cell-based. Conditions: CHO cells overexpressing human FPR1; forskolin 10 µM; inhibition of cAMP production; read-out: hFPR1 cAMP EC50. In outline: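 CHO cells overexpressing human FPR1 (4,000 cells/well) stimulated with 10 µM forskolin plus 200 µM IBMX in the presence of compound (0.020 nM–100 µM, 1% DMSO), 30 min at room temperature. Intracellular cAMP measured by HTRF. Inhibition of cAMP production fitted to a 4-parameter logistic equation.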

Assay [2] deals with human FPR2 (Homo sapiens (Human), UniProt P25090). Nature of the assay: FPR2 cyclic adenosine monophosphate (cAMP) assay. It is filed as cell-based. The note with it: CHO cells overexpressing human FPR2; forskolin 5 µM; inhibition of cAMP production; read-out: hFPR2 cAMP2 EC50. In outline:
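CHO cells overexpressing human FPR2 (2,000/well) incubated 30 min at room temperature with compound (0.020 nM–100 µM, 1% DMSO), 5 µM forskolin and 200 µM IBMX.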
In general terms: Changes in cAMP serve as a functional read-out for many G protein-coupled receptors.

The EC50 is the concentration giving half of the maximal effect.

Chain of human FPR1 (P21462 whole entry): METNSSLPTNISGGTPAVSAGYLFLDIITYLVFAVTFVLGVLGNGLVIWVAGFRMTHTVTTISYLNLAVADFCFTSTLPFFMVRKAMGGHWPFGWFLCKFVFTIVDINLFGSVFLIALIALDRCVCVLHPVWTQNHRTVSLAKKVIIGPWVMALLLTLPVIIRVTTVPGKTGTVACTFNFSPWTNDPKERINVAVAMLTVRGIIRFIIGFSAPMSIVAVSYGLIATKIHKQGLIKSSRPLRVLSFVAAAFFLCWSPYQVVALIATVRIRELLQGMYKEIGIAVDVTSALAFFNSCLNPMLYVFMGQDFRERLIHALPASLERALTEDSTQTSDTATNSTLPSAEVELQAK
Chain of human FPR2 (P25090 whole entry): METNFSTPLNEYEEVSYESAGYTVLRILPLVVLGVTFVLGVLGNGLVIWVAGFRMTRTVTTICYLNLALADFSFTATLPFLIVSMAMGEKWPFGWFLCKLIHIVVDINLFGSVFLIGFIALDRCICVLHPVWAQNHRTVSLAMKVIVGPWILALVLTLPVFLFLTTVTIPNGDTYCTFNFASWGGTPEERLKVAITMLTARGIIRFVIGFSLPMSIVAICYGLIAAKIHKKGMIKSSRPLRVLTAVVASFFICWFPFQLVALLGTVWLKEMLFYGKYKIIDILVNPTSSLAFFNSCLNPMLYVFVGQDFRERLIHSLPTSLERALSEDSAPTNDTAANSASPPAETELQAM

For the compound `COc1cc(F)c([C@@H]2CN(c3c(C)ncn(CC(F)F)c3=O)C(=O)[C@H]2NC(=O)c2ccc(Cl)cc2)c(F)c1` [Example 533], the results for the EC50 in assay [1] and in assay [2] were 900 nM and 4 nM, respectively.

Turning to `COc1cc(C2CCNCC2)nc(N2C[C@@H](c3c(F)cc(OC)cc3F)[C@H](NC(=O)c3ccc(OC(F)F)cc3)C2=O)c1` [Example 534], the values for the EC50 in assay [1] and in assay [2] were above 5000 nM and 3.4 nM, respectively.

Consider `COc1cc(F)c([C@@H]2CN(c3nc(OCC4CCOC4)ccc3F)C(=O)[C@H]2NC(=O)c2ccc(OC(F)F)cc2)c(F)c1` (stereo partly shown) [Example 535], for which the EC50 came to 200 nM in assay [1] and 1 nM in assay [2].

Take `COc1cc(F)c([C@@H]2CN(c3cccc(C4CCN(C)CC4)n3)C(=O)[C@H]2NC(=O)c2ccc(OC(F)F)cc2)c(F)c1` [Example 536]: the EC50 in assay [1] was 650 nM; in assay [2] it was 2.1 nM.

With `COc1cc(F)c([C@H]2[C@H](NC(=O)c3ccc(OC(F)F)cc3)C(=O)N(c3cccc(C4CCN(CC(F)F)CC4)n3)[C@H]2C)c(F)c1` [Example 537], the EC50 in assay [1] was found to be 35 nM; in assay [2], 9.9 nM.

Take `COc1cc(C2CCN(C)CC2)nc(N2C(=O)[C@@H](NC(=O)c3ccc(OC(F)F)cc3)[C@H](c3c(F)cc(OC)cc3F)[C@@H]2C)c1` [Example 538]: the EC50 in assay [1] was determined as 2000 nM; in assay [2], 1.3 nM.

In the case of `COc1cc(C2CCOCC2)nc(N2C(=O)[C@@H](NC(=O)c3ccc(OC(F)F)cc3)[C@H](c3c(F)cc(OC)cc3F)[C@H]2C)c1` [Example 539], the EC50 worked out at 470 nM in assay [1] and 6.8 nM in assay [2].

As for `COc1cc(F)c([C@@H]2CN(c3ncn(CC(F)F)n3)C(=O)[C@H]2NC(=O)c2ccc(Cl)cc2)c(F)c1` [Example 541], the EC50 in assay [1] amounted to 810 nM; in assay [2] it was 20 nM.

For `COc1cc(F)c([C@@H]2CN(c3cncn(C4CCOCC4)c3=O)C(=O)[C@H]2NC(=O)c2ccc(Cl)cc2)c(F)c1` [Example 542], the EC50 in assay [1] came out at 1200 nM; in assay [2], 5.7 nM.

As to `COc1cc(F)c([C@@H]2CN(c3cncnc3OC3CCOCC3)C(=O)[C@H]2NC(=O)c2ccc(Cl)cc2)c(F)c1` [Example 543], the EC50 is 1900 nM in assay [1] and 6.9 nM in assay [2].

With `COc1cc(F)c([C@H]2[C@H](NC(=O)c3ccc(Cl)cc3)C(=O)N(c3cccc(N4CC[C@@H](O)C4)n3)[C@@H]2C)c(F)c1` [Example 545], the EC50 in assay [1] worked out at 330 nM; in assay [2], 6 nM.

Consider `COc1cc(F)c([C@@H]2CN(c3nccn(C4CC4)c3=O)C(=O)[C@H]2NC(=O)c2ccc(Cl)cc2)c(F)c1` [Example 546], for which the EC50 stood at 1800 nM in assay [1] and 2.1 nM in assay [2].

As for `COc1cc(F)c([C@@H]2CN(c3cncn(CC4CCOCC4)c3=O)C(=O)[C@H]2NC(=O)c2ccc(Cl)cc2)c(F)c1` [Example 547], the EC50 in assay [1] worked out at 2400 nM; in assay [2], 4.5 nM.

`COc1cc(C2CCN(CC(F)(F)F)CC2)nc(N2C(=O)[C@@H](NC(=O)c3ccc(OC(F)F)cc3)[C@H](c3c(F)cc(OC)cc3F)[C@@H]2C)c1` [Example 548]: the EC50 was above 5000 nM in assay [1] and 280 nM in assay [2].

As to `COc1cc(F)c([C@@H]2CN(c3nc(C4CCN(CC(F)F)CC4)ccc3F)C(=O)[C@H]2NC(=O)c2ccc(OC(F)F)cc2)c(F)c1` [Example 549], the EC50 in assay [1] turned out to be 28 nM; in assay [2] it was 4.1 nM.

Turning to `COc1cc(F)c([C@@H]2CN(c3nc(C4CCN(CC(F)(F)F)CC4)ccc3F)C(=O)[C@H]2NC(=O)c2ccc(OC(F)F)cc2)c(F)c1` [Example 550], the values for the EC50 in assay [1] and in assay [2] were 3.5 nM and 10 nM, respectively.

`COc1cc(F)c([C@@H]2CN(c3nc(C(F)(F)F)ccc3C#N)C(=O)[C@H]2NC(=O)c2ccc(OC(F)(F)F)cc2)c(F)c1` [Example 551]: the EC50 in assay [1] is 77 nM; in assay [2] it was 1.5 nM.

With `COc1cc(N2C[C@@H]3C[C@H]2CO3)nc(N2C(=O)[C@@H](NC(=O)c3ccc(OC(F)(F)F)cc3)[C@H](c3c(F)cc(OC)cc3F)[C@@H]2C)c1` [Example 552], the values for the EC50 in assay [1] and in assay [2] were 440 nM and 130 nM, respectively.

Regarding `COc1cc(F)c([C@H]2[C@H](NC(=O)c3ccc(Cl)cc3)C(=O)N(c3nccn(CC(F)F)c3=O)[C@@H]2C)c(F)c1` [Example 554], the values for the EC50 in assay [1] and in assay [2] were 2400 nM and 4.3 nM, respectively.

As for `COc1cc(F)c([C@H]2[C@H](NC(=O)c3ccc(OC(F)F)cc3)C(=O)N(c3cncn(CC(F)F)c3=O)[C@H]2C)c(F)c1` [Example 555], the EC50 in assay [1] came out at 530 nM; in assay [2], 31 nM.

As for `COc1cc(F)c([C@@H]2CN(c3nc(C4CCN(C)CC4)ccc3F)C(=O)[C@H]2NC(=O)c2ccc(OC(F)F)cc2)c(F)c1` [Example 556], the figures for the EC50 in assay [1] and in assay [2] were 2000 nM and 2.2 nM, respectively.

With `COc1cc(F)c([C@H]2[C@H](NC(=O)c3ccc(OC(F)F)cc3)C(=O)N(c3cccc(OCCO)n3)[C@H]2C)c(F)c1` [Example 559], the EC50 is 450 nM in assay [1] and 6.6 nM in assay [2].

With `COc1cc(F)c([C@H]2[C@H](NC(=O)c3ccc(Cl)cc3)C(=O)N(c3nccn(CC(F)F)c3=O)[C@H]2C)c(F)c1` [Example 560], the values for the EC50 in assay [1] and in assay [2] were 120 nM and 0.8 nM, respectively.

Take `COc1cc(F)c([C@H]2[C@H](NC(=O)c3ccc(OC(F)F)cc3)C(=O)N(c3cccc(N4CC[C@@H](O)C4)n3)[C@H]2C)c(F)c1` [Example 561]: the EC50 came out at 170 nM in assay [1] and 4.3 nM in assay [2].

As for `COCC(CO)n1ccc(C)c(N2C[C@@H](c3ccc(OC)cc3)[C@H](NC(=O)c3ccc(OC(F)(F)F)cc3)C2=O)c1=O` (stereo partly shown) [Example 563], the EC50 in assay [1] and in assay [2] was 2.3 nM throughout.

Turning to `COCC(CO)n1ccc(C)c(N2C[C@@H](c3ccc(OC)cc3)[C@H](NC(=O)c3ccc(OC(F)(F)F)cc3)C2=O)c1=O` (stereo partly shown) [Example 564], the EC50 amounted to 0.5 nM in assay [1] and 3.6 nM in assay [2].

With `COc1cc(C2CCN(C)CC2)nc(N2C(=O)[C@@H](NC(=O)c3ccc(OC(F)(F)F)cc3)[C@H](c3c(F)cc(OC)cc3F)[C@@H]2C)c1` [Example 565], the EC50 in assay [1] was found to be 720 nM; in assay [2], 8.2 nM.

As to `COc1cc(F)c([C@@H]2CN(c3cccc(N4CCN(C)CC4)n3)C(=O)[C@H]2NC(=O)c2ccc(OC(F)F)cc2)c(F)c1` [Example 566], the EC50 in assay [1] stood at 990 nM; in assay [2] it was 1.1 nM.

As to `COc1cc(F)c([C@@H]2CN(c3cccc(N4CCN(S(C)(=O)=O)CC4)n3)C(=O)[C@H]2NC(=O)c2ccc(OC(F)F)cc2)c(F)c1` [Example 567], the concentration giving a half-maximal response (EC50) in assay [1] was above 5000 nM; in assay [2] it was 9.6 nM.

In the case of `COc1cc(F)c([C@H]2[C@H](NC(=O)c3ccc(OC(F)F)cc3)C(=O)N(c3cccc(N4CC[C@H](O)C4)n3)[C@H]2C)c(F)c1` [Example 568], the EC50 is 440 nM in assay [1] and 2.8 nM in assay [2].

Take `COc1cc(F)c([C@@H]2CN(c3ccc(F)c(N4C[C@@H]5C[C@H]4CN5C)n3)C(=O)[C@H]2NC(=O)c2ccc(OC(F)F)cc2)c(F)c1` [Example 569]: the EC50 in assay [1] was found to be 1600 nM; in assay [2] it was 1.2 nM.

On to `COc1cc(F)c([C@@H]2CN(c3cc(C)cc(N4C[C@@H]5C[C@H]4CN5C)n3)C(=O)[C@H]2NC(=O)c2ccc(OC(F)F)cc2)c(F)c1` [Example 570], for which the EC50 in assay [1] is 1500 nM; in assay [2], 1.2 nM.
